Test results: patent publication US8178091B2, “Compositions and methods for the treatment of respiratory disorders” (University of Washington, priority 2007, dated 2012)
Entries after “also recorded” stand apart in the source; their conditions may differ.

Legend:
bleomycin-treated mice = experiment: bleomycin-induced lung injury and fibrosis model; type: in vivo
Description: ICR male mice are anesthetized under pentobarbital (60 mg/kg, i.v.) anesthesia, the cervical region is shaved and the skin is incised for about 4 mm from under the larynx region along the median line. Next, the muscle layer covering upper trachea is peeled off to expose the trachea. Using a micro-syringe, physiological saline or bleomycin hydrochloride (0.03 mg/animal, manufactured by Nippon Kayaku) is administered tracheally (50 μl/animal) from the tracheal smooth muscle region between cricoid cartilage. After the administration, the incised region is closed and antibiotics are administered into the thigh intramuscularly in order to prevent infection. IGF-1R inhibitor, e.g., antibody to IGF-1 receptor (A12). […] Controls included bleomycin-treated animals receiving saline injection in place of A12 antibody. At various time points after the induction, each animal is sacrificed by exsanguination under pentobarbital anesthesia, and lung tissue is excised to monitor for differences in lung injury in the test versus control groups. In addition, bronchoalveolar lavage is performed, with analysis of the resulting fluid for differences in total protein, cytokines, inflammatory cells and fibroblasts or in the responsiveness of such cells to, e.g., apoptotic or other stimuli. Lung hydroxyproline content is measured as a measure of fibrosis. Changes in lung tissue histology are also monitored. Further details on the processing of lung tissue for analysis include the following. At time of sacrifice, the right main stem bronchus was tied off and the left lung was isolated and lavaged with 1 ml of PBS containing 0.6 mM EDTA warmed to 37° C. Bronchoalveolar lavage fluid (BALF) total cell count was determined by trypan blue exclusion and cell differential was determined on Diff quick (Dade Behring Ag, Düdingen, Switzerland) stained cytospins. Following brief centrifugation, cell-free supernatants were used for measurement of total protein by Bio-Rad protein assay (Bio-Rad laboratories, Hercules, Calif.). […] Hydroxyproline concentration was extrapolated from a standard curve. The right lung was inflated and fixed with 4% formaldehyde at 25 cmH2O pressure for histologic evaluation.
For these experiments, the bleomycin-induced lung injury was initiated in the manner described herein above, and the A12 anti-IGF-1R antibody was used for receptor blockade. Mice treated with bleomycin were treated with a monoclonal antibody against the IGF-1 receptor (A12) or vehicle.
For statistical analyses of the data, means of more than two groups of data were compared using one-way analysis of variance (ANOVA) with Tukey's honestly significant difference (HSD) post hoc test. In some cases, Kaplan-Meier Survival Analysis was performed using JMP IN v5.1; statistical significance was determined using log rank test.

[1] = type: in vivo, mice; conditions: absence of bleomycin, not shown
Excerpt: In the saline control group, most deaths occurred between 7 and 10 days, as expected in this model. […] In the absence of bleomycin, administration of A12 alone had no affect on survival, lung histology, BAL protein concentration or cell count (not shown).

Question: What does the source list for “A12: Function blocking antibody to the human type 1 IGF receptor, gift from ImClone Systems”?
Answer: proportion of mice surviving (bleomycin-treated mice; 7-14 days post-bleomycin, A12 40 mg/kg i.p. vs saline): significantly greater; BALF total protein concentration (bleomycin-treated mice; 28 days, vs saline, p=0.16): trend towards decreased BALF protein concentration; weight loss (bleomycin-treated mice; by d14, bleomycin-treated mice): 20%; lung hydroxyproline content (fibrosis) (bleomycin-treated mice; day 7 and day 14, vs saline): no significant differences; lung histology (bleomycin-treated mice; day 14, vs saline): Only subtle histological differences; also recorded: qualitatively less fibrosis; lung histology (bleomycin-treated mice; day 28, vs saline): Reduced evidence of fibrosis; also recorded: better preservation of lung architecture and lung size, and fewer areas of fibrosis; lung hydroxyproline content (fibrosis) (bleomycin-treated mice; day 28, vs saline control (p=0.03) or d14 (p=0.001)): significantly lower lung hydroxyproline levels; also recorded: significantly less hydroxyproline; BALF total protein concentration (bleomycin-treated mice; days 7 and 14, vs saline): no significant difference; also recorded: no difference in BALF protein concentration; survival (Kaplan-Meier) (bleomycin-treated mice; n=24 per group, p=0.01 vs saline control): statistically significant survival benefit; BALF differential cell count (bleomycin-treated mice; vs saline): no significant difference; also recorded: no difference in the cell differential; BALF total cell count (bleomycin-treated mice; vs saline): no significant difference; also recorded: not statistically different; respiratory or systemic distress by body condition scoring (bleomycin-treated mice; vs saline control): less evidence of respiratory or systemic distress; survival, lung histology, BAL protein concentration or cell count [1]: had no affect
